According to publication PMC6473556, “Targetable Mechanical Properties by Switching between Self‐Sorting and Co‐assembly with In Situ Formed Tripodal Ketoenamine Supramolecular Hydrogels” (Chemnanomat, 2018):

What was measured:
Type in all cases: physicochemical
[1] = Rheometry of the gels (time, frequency and stress sweeps); settings: gel at 40 mM gelator concentration, standard deviation in brackets; for Yield stress: rounded to nearest 10; for G′ / G′′: rounded to nearest 100
Method: Another observation is the difference in transparency between the gels (Figure 1). Gels R2 and R6 are noticeably more transparent than the other gels. This transparency is a result of gels R2 and R6 having narrower fibres and therefore scattering less light (Figure S59). […] The responses of the nine presented gels to mechanical stimulus were determined using rheometry (Table 1). Although differences in mechanical properties are apparent when comparing one gel to another the difference between the same gel prepared ex situ and in situ is negligible (see ESI). Once a constant value for G′ had been recording during the time sweep experiments, the gelatinous nature of the materials was confirmed using frequency sweep rheometry.
For all gels the G′ and G“ values remained constant over a frequency range of 0.1–100 Hz, with the value of G′ several times the value recorded for G” (Figure 3). To examine the gels’ non‐linear rheological behaviour stress sweep experiments were conducted. The defining point of the experiment is the yield stress, below which G′ remains essentially constant, but above which the gel begins to flow (see ESI).

[2] = Critical gel concentration, inverted vial method; settings: 0.5 ml water
Method: 3.3 Setting gel using the ex situ prepared compound (gels R1 to R8 inclusively):
This procedure describes the method used in a typical setting of the hydrogel at 2 wt% using the previously prepared synthesised compound.
The gel ligand (0.1 g) was suspended in water, to this suspension sodium hydroxide was added (0.05 g, 1.25 mmol). Sonication and gentle heating was used to ensure the ligand had completely dissolved giving a solution with a pH of 9 – 10. To this solution glucono delta-lactone (GdL) (0.08 g, 0.45 mmol) was added and the solution was shaken until the GdL had […]
3.4 Setting gel R9 using the ex situ prepared compound:
This procedure describes the method used in a typical setting of the hydrogel R9 at 2 wt% using the previously prepared synthesised compound R9.
The synthesised compound R9 (0.1 g, 0.21 mmol) was suspended in water (5 ml), to this suspension sodium hydroxide was added (0.05 g, 1.25 mmol). Sonication and gentle heating was used to ensure the ligand had completely dissolved giving a solution with a pH of 9 – 10.
To this solution conc. Hydrochloric acid (0.4 ml) was rapidly added instantly producing a […]
3.5 Critical gel concentration (CGC):
Critical gel concentration was determined using the inverted vial method in 2 ml sample vials using 0.5 ml of water. This method can often give lower CGC values than are determined using a rheometer due to the low volume of solution and the high surface tension within the vials.

[3] = Gelation on lowering the pH with glucono-delta-lactone; settings: in situ reaction at high pH after addition of GdL

Structure (SMILES)	Yield stress [1]	G′ [1]	G′′ [1]	CGC (critical gel concentration) [2] [Wt%]	Gelation [3]
COc1c(NC=C2C(=O)C(=CNc3cccc(C(=O)O)c3OC)C(=O)C(=CNc3cccc(C(=O)O)c3OC)C2=O)cccc1C(=O)O [R7]	90(30) μNm	8800(200) Pa	2100(300) Pa	0.5	–
O=C1C(=CNc2ccc(C(=O)O)cc2)C(=O)C(=CNc2ccc(C(=O)O)cc2)C(=O)C1=CNc1ccc(C(=O)O)cc1 [R1]	140(10) μNm	9000(200) Pa	2300(100) Pa	0.3	–
O=C1C(=CNc2ccc(C(=O)O)cc2O)C(=O)C(=CNc2ccc(C(=O)O)cc2O)C(=O)C1=CNc1ccc(C(=O)O)cc1O [R4]	40(10) μNm	9300(200) Pa	2100(200) Pa	0.4	–
O=C1C(=CNc2cc(C(=O)O)ccc2O)C(=O)C(=CNc2cc(C(=O)O)ccc2O)C(=O)C1=CNc1cc(C(=O)O)ccc1O [R5]	80(20) μNm	10800(200) Pa	3100(400) Pa	0.4	–
O=C(O)CCCCCNC=C1C(=O)C(=CNCCCCCC(=O)O)C(=O)C(=CNCCCCCC(=O)O)C1=O [R10]	–	–	–	–	no gelation
O=C1C(=CNc2cc(C(=O)O)cc(C(F)(F)F)c2)C(=O)C(=CNc2cc(C(=O)O)cc(C(F)(F)F)c2)C(=O)C1=CNc1cc(C(=O)O)cc(C(F)(F)F)c1 [R6]	250(30) μNm	15400(300) Pa	2600(200) Pa	0.1	–
O=C1C(=CNc2ccc(Cl)c(C(=O)O)c2)C(=O)C(=CNc2ccc(Cl)c(C(=O)O)c2)C(=O)C1=CNc1ccc(Cl)c(C(=O)O)c1 [R2]	80(20) μNm	12700(100) Pa	3300(200) Pa	0.2	–
O=C1C(=CNc2ccc(O)cc2)C(=O)C(=CNc2ccc(O)cc2)C(=O)C1=CNc1ccc(O)cc1 [R9]	20(40) μNm	1200(100) Pa	300(300) Pa	0.9	–
COc1cc(NC=C2C(=O)C(=CNc3ccc(C(=O)O)c(OC)c3)C(=O)C(=CNc3ccc(C(=O)O)c(OC)c3)C2=O)ccc1C(=O)O [R3]	140(20) μNm	10200(300) Pa	2100(100) Pa	0.5	–
Cc1cc(NC=C2C(=O)C(=CNc3ccc(C(=O)O)c(C)c3)C(=O)C(=CNc3ccc(C(=O)O)c(C)c3)C2=O)ccc1C(=O)O [R8]	70(20) μNm	9600(100) Pa	2500(200) Pa	0.5	–
